Data published in patent publication US8242145B2, “Cyclic diaryl ether compounds as antagonists of prostaglandin D2 receptors” (Panmira Pharmaceuticals, LLC, priority 2008, dated 2012).

What was measured:
human DP2 receptor = molecular target: T1, human DP2 receptor (Homo sapiens, UniProt Q9Y5Y4); experiment: DP2/CRTH2 radioligand binding assay using [3H]PGD2; conditions: hDP2 (CRTH2) binding assay
T1 construct: expressed in transfected cells
T1 sequence (Q9Y5Y4 1-395): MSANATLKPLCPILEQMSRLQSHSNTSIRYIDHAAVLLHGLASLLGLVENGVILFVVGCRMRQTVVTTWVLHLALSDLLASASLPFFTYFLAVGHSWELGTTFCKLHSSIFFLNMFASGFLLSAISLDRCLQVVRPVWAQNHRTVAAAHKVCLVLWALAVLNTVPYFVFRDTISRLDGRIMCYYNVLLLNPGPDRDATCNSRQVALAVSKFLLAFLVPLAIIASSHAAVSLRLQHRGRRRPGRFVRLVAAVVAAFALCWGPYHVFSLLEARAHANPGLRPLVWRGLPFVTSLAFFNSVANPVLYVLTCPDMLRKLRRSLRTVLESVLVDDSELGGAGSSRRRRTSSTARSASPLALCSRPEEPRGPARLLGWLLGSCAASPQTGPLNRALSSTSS
Summary of the method: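 HEK293 membranes with stable recombinant human DP2, incubated with 1 nM [3H]PGD2 and compound 60 min at room temperature in pH 7.4 HEPES/MnCl2/EDTA buffer, with or without 0.2% human serum albumin.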

[1] = molecular target: T2, recombinant human CRTH2 receptor (Homo sapiens, UniProt Q9Y5Y4); experiment: GTPγS binding assay; type: biochemical; conditions: +HSA; read-out: hDP2 GTPγS μM (+HSA)
T2 construct: expressed in transfected cells
T2 sequence (Q9Y5Y4 1-395): T1 sequence (Q9Y5Y4 1-395)
Procedure: The ability of a compound to inhibit binding of GTP to DP2 is assessed via a membrane GTPγS assay. CHO cells stably expressing the recombinant human CRTH2 receptor are resuspended in 10 mM Hepes, 7.4 containing 1 mM DTT, lysed and centrifuged at 75,000×g to pellet the membranes. The membranes are resuspended in 10 mM Hepes, 7.4 containing 1 mM DTT and 10% glycerol. Membranes (˜12.5 μg per well) are incubated in 96-well plates with 0.05 nM [^35S]-GTPγS, 80 nM PGD2, 5 μM GDP, and test compound in Assay Buffer (50 mM Hepes, pH 7.4, 100 mM NaCl, 5 mM MgCl2 and 0.2% human serum albumin) for 60 minutes at 30° C. The reactions are terminated by rapid filtration through Whatman GF/B glass fibre filter plates. The filter plates are washed 3 times with 1 ml cold Assay Buffer and dried. Scintillant is then added to the plates and the radioactivity retained on the filters is determined on a Packard TopCount (Perkin Elmer). Specific binding is determined as total radioactive binding minus non-specific binding in the absence of the ligand (80 nM PGD2). IC50s were determined using Graphpad prism analysis of drug titration curves.

human DP1 receptor = molecular target: T3, human DP1 receptor (Homo sapiens, UniProt Q13258); experiment: DP1 radioligand binding assay using [3H]BWA868C; conditions: hDP1 binding
T3 construct: tissue Biological Specialty Corporation; host or cells: human platelets, membranes
T3 sequence (Q13258 1-359): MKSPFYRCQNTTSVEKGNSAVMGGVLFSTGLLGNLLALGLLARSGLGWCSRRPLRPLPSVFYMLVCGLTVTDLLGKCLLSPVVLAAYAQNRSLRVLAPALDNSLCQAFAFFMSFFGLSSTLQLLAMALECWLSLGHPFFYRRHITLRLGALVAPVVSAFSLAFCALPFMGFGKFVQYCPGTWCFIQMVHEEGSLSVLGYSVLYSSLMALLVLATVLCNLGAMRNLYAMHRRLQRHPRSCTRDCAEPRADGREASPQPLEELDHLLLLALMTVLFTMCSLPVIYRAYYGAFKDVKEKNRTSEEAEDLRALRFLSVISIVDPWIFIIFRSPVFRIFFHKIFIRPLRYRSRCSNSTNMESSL
Summary of the method: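 Human platelet membranes (20 μg protein/well) incubated 60 min at room temperature with 2 nM [3H]BWA868C in 50 mM Hepes, 10 mM MnCl2, 1 mM EDTA, ±0.2% human serum albumin, pH 7.4. Bound label measured after filtration; nonspecific binding defined with 10 μM BW A868C. IC50 from titration curves.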

SMILES	IC50 (human DP2 receptor)	IC50 [1]	IC50 (human DP1 receptor)
C[C@@H]1[C@H](c2ccccc2)OC(=O)N1Cc1cc(Br)ccc1Oc1cc(F)cc(CC(=O)O)c1 [Compound 1-55, {3-[4-Bromo-2-((4R,5S)-4-methyl-2-oxo-5-phenyl-oxazolidin-3-ylmethyl)-phenoxy]-5-fluoro-phenyl}-acetic acid]	< 300 nM	< 0.3 µM	> 1000 nM
C[C@H]1[C@@H](c2ccccc2)OC(=O)N1Cc1cc(C(F)(F)F)ccc1Oc1cccc(CC(=O)O)c1 [Compound 1-77, {3-[2-((4S,5R)-4-Methyl-2-oxo-5-phenyl-oxazolidin-3-ylmethyl)-4-trifluoromethyl-phenoxy]-phenyl}-acetic acid]	< 300 nM	0.3 to 1 µM	< 300 nM
COc1ccc(CC(=O)O)cc1Oc1ccc(Br)cc1CN1C(=O)O[C@@H]2Cc3ccccc3[C@@H]21 [Compound 2-5, {3-[4-Bromo-2-((3aS,8aR)-2-oxo-8,8a-dihydro-3aH-indeno[1,2-d]oxazol-3-ylmethyl)-phenoxy]-4-methoxy-phenyl}-acetic acid]	< 300 nM	< 0.3 µM	> 1000 nM
C[C@@H]1[C@H](c2ccccc2)OC(=O)N1Cc1cc(C(F)(F)F)ccc1Oc1cc(CC(=O)O)ccc1-c1ccccc1 [Compound 1-80, {2-[2-((4R,5S)-4-Methyl-2-oxo-5-phenyl-oxazolidin-3-ylmethyl)-4-trifluoromethyl-phenoxy]-biphenyl-4-yl}-acetic acid]	< 300 nM	< 0.3 µM	> 1000 nM
COc1ccc(CC(=O)O)cc1Oc1ccc(C(F)(F)F)cc1CN1CCOC1=O [Compound 1-9, {4-Methoxy-3-[2-(2-oxo-oxazolidin-3-ylmethyl)-4-trifluoromethyl-phenoxy]-phenyl}-acetic acid]	< 300 nM	< 0.3 µM	> 1000 nM
COc1ccc(CC(=O)O)cc1Oc1ccc(Br)cc1CN1CCOC1=O [Compound 1-14, {3-[4-Bromo-2-(2-oxo-oxazolidin-3-ylmethyl)-phenoxy]-4-methoxy-phenyl}-acetic acid]	< 300 nM	< 0.3 µM	> 1000 nM
C[C@@H]1[C@H](c2ccccc2)OC(=O)N1Cc1cc(C(F)(F)F)ccc1Oc1cc(CC(=O)O)ccc1-c1cnn(C)c1 [Compound 1-79, [3-[2-((4R,5S)-4-Methyl-2-oxo-5-phenyl-oxazolidin-3-ylmethyl)-4-trifluoromethyl-phenoxy]-4-(1-methyl-1H-pyrazol-4-yl)-phenyl]-acetic acid]	< 300 nM	< 0.3 µM	> 1000 nM
COc1ccc(CC(=O)O)cc1Oc1ccc(-c2ccccc2)cc1CN1C(=O)O[C@H](c2ccccc2)[C@@H]1C [Compound 1-35, {4-Methoxy-3-[3-((4S,5R)-4-methyl-2-oxo-5-phenyl-oxazolidin-3-ylmethyl)-biphenyl-4-yloxy]-phenyl}-acetic acid]	< 300 nM	> 1 µM	> 1000 nM
O=C(O)Cc1cccc(Oc2ccc(Br)cc2CN2C[C@@H](c3ccccc3)OC2=O)c1 [Compound 1-47, {3-[4-Bromo-2-((R)-2-oxo-5-phenyl-oxazolidin-3-ylmethyl)-phenoxy]-phenyl}-acetic acid]	< 300 nM	< 0.3 µM	300 to 1000 nM
CS(=O)(=O)c1ccc(-c2ccc(Oc3cccc(CC(=O)O)c3)c(CN3CCOC3=O)c2)cc1 [Compound 1-85, {3-[4′-Methanesulfonyl-3-(2-oxo-oxazolidin-3-ylmethyl)-biphenyl-4-yloxy]-phenyl}-acetic acid]	< 300 nM	0.3 to 1 µM	> 1000 nM
C[C@@H]1[C@H](c2ccc(Cl)cc2)OC(=O)N1Cc1cc(Br)ccc1Oc1cccc(CC(=O)O)c1 [Compound 1-50, (3-{4-Bromo-2-[(4R,5S)-5-(4-chloro-phenyl)-4-methyl-2-oxo-oxazolidin-3-ylmethyl]-phenoxy}-phenyl)-acetic acid]	< 300 nM	0.3 to 1 µM	300 to 1000 nM
CCOc1ccc(CC(=O)O)cc1Oc1ccc(Br)cc1CN1C(=O)O[C@@H](c2ccccc2)[C@H]1C [Compound 1-88, {3-[4-Bromo-2-((4R,5S)-4-methyl-2-oxo-5-phenyl-oxazolidin-3-ylmethyl)-phenoxy]-4-ethoxy-phenyl}-acetic acid]	< 300 nM	< 0.3 µM	> 1000 nM

Now from value to compound:

IC50 (human DP2 receptor)	IC50 [1]	IC50 (human DP1 receptor)	SMILES
< 300 nM	0.3 to 1 µM	< 300 nM	Cc1nc(C)c(-c2ccc(Oc3cccc(CC(=O)O)c3)c(CN3C(=O)O[C@H](c4ccccc4)[C@@H]3C)c2)s1 [Compound 1-75, {3-[4-(2,4-Dimethyl-thiazol-5-yl)-2-((4S,5R)-4-methyl-2-oxo-5-phenyl-oxazolidin-3-ylmethyl)-phenoxy]-phenyl}-acetic acid]
< 300 nM	0.3 to 1 µM	> 1000 nM	CCNC(=O)c1ccc(Oc2cc(CC(=O)O)ccc2OC)c(CN2C(=O)O[C@@H](c3ccccc3)[C@H]2C)c1 [Compound 1-65, {3-[4-Ethylcarbamoyl-2-((4R,5S)-4-methyl-2-oxo-5-phenyl-oxazolidin-3-ylmethyl)-phenoxy]-4-methoxy-phenyl}-acetic acid]
< 300 nM	0.3 to 1 µM	> 1000 nM	C[C@@H]1[C@H](c2ccccc2)OC(=O)N1Cc1cc(Br)ccc1Oc1cc(CC(=O)O)ccc1Cl [Compound 1-58, {3-[4-Bromo-2-((4R,5S)-4-methyl-2-oxo-5-phenyl-oxazolidin-3-ylmethyl)-phenoxy]-4-chloro-phenyl}-acetic acid]
< 300 nM	0.3 to 1 µM	> 1000 nM	COc1ccc(CC(=O)O)cc1Oc1ccc(Br)cc1CN1C(=O)O[C@@H](c2ccc(Cl)cc2)[C@H]1C [Compound 1-62]
< 300 nM	> 1 µM	> 1000 nM	C[C@@H]1[C@H](c2ccccc2)OC(=O)N1Cc1cc(Br)ccc1Oc1ccc(Cl)c(CC(=O)O)c1 [Compound 1-53, {5-[4-Bromo-2-((4R,5S)-4-methyl-2-oxo-5-phenyl-oxazolidin-3-ylmethyl)-phenoxy]-2-chloro-phenyl}-acetic acid]
< 300 nM	0.3 to 1 µM	> 1000 nM	COc1cccc(-c2ccc(Oc3cc(CC(=O)O)ccc3OC)c(CN3C(=O)O[C@H](c4ccccc4)[C@@H]3C)c2)c1 [Compound 1-38, {4-Methoxy-3-[3′-methoxy-3-((4S,5R)-4-methyl-2-oxo-5-phenyl-oxazolidin-3-ylmethyl)-biphenyl-4-yloxy]-phenyl}-acetic acid]
< 300 nM	< 0.3 µM	> 1000 nM	C[C@@H]1[C@H](c2ccccc2)OC(=O)N1Cc1cc(Br)ccc1Oc1cc(CC(=O)O)ccc1O [Compound 1-87, {3-[4-Bromo-2-((4R,5S)-4-methyl-2-oxo-5-phenyl-oxazolidin-3-ylmethyl)-phenoxy]-4-hydroxy-phenyl}-acetic acid]
< 300 nM	> 1 µM	< 300 nM	C[C@H]1[C@@H](c2ccc(Cl)cc2)OC(=O)N1Cc1cc(Br)ccc1Oc1cccc(CC(=O)O)c1 [Compound 1-16, (3-{4-Bromo-2-[(4S,5R)-5-(4-chloro-phenyl)-4-methyl-2-oxo-oxazolidin-3-ylmethyl]-phenoxy}-phenyl)-acetic acid]
< 300 nM	> 1 µM	300 to 1000 nM	O=C(O)Cc1cccc(Oc2ccc(Br)cc2CN2C[C@H](c3ccccc3)OC2=O)c1 [Compound 1-48, {3-[4-Bromo-2-((S)-2-oxo-5-phenyl-oxazolidin-3-ylmethyl)-phenoxy]-phenyl}-acetic acid]
< 300 nM	0.3 to 1 µM	> 1000 nM	O=C(O)Cc1cccc(Oc2ccc(Br)cc2CN2CCOC2=O)c1 [Compound 1-3, {3-[4-Bromo-2-(2-oxo-oxazolidin-3-ylmethyl)-phenoxy]-phenyl}-acetic acid]
